ChEMBL document CHEMBL3621124, “Synthesis, cytotoxicity and inhibition of NO production of ivangustin enantiomer analogues” (Eur J Med Chem, 2015)

How the values were obtained:
[1] = system: SMMC-7721; assay: Cytotoxicity against human SMMC7721 cells assessed as growth inhibition incubated for 72 hrs by MTT assay; type: functional, cell-based; details: SMMC-7721, 72 h
[2] = system: HL-60; assay: Cytotoxicity against human HL60 cells assessed as growth inhibition incubated for 72 hrs by CCK8 assay; type: functional, cell-based; details: HL-60, 72 h
[3] = system: A549; assay: Cytotoxicity against human A549 cells assessed as growth inhibition incubated for 72 hrs by MTT assay; type: functional, cell-based; details: A549, 72 h
[4] = Cytotoxicity against human QGY7701 cells assessed as growth inhibition incubated for 72 hrs by MTT assay; type: functional, cell-based; details: QGY7701, 72 h
[5] = system: RAW264.7; assay: Cytotoxicity against LPS-induced mouse RAW264.7 cells incubated for 18 hrs by MTT assay; type: cell-based; details: RAW264.7, 18 h
[6] = system: HCT-116; assay: Cytotoxicity against human HCT116 cells assessed as growth inhibition incubated for 72 hrs by MTT assay; type: functional, cell-based; details: HCT-116, 72 h
[7] = system: MCF7; assay: Cytotoxicity against human MCF7 cells assessed as growth inhibition incubated for 72 hrs by MTT assay; type: functional, cell-based; details: MCF7, 72 h
[8] = system: RAW264.7; assay: Anti-inflammatory activity against LPS-induced mouse RAW264.7 cells assessed as inhibition of nitric oxide production incubated for 20 mins before LPS induction by Griess method; type: functional, cell-based

Compound | IC50 [1] | IC50 [2] | IC50 [3] | IC50 [4] | IC50 [5] | IC50 [6] | IC50 [7] | IC50 [8]
C=C1C(=O)O[C@H]2C[C@](C)(C(=O)CC(=O)CC)C(=O)C[C@@H]12 | 48.6 µM | 16.4 µM | 21.9 µM | 13.7 µM | 47.2 µM | 21 µM | 27.2 µM | 6.99 µM
N=C(N)NN [PIMAGEDINE] | – | – | – | – | – | – | – | 11.9 µM
C=C1C(=O)O[C@H]2C[C@@]3(C)C(=O)[C@@H]([C@@H]12)[C@](O)(CC)C[C@@H]3OCOC | 31.7 µM | 9.37 µM | 17 µM | 7.75 µM | 20.1 µM | 14.5 µM | 16.4 µM | 6.7 µM
C=C(C)CC[C@H](O)[C@@]1(C)C[C@@H]2OC(=O)C(=C)[C@@H]2CC1=O | 53.1 µM | 14.8 µM | 17.4 µM | 8.7 µM | 26.6 µM | 19.2 µM | 18.9 µM | 6.12 µM
C=C1C(=O)O[C@H]2C[C@]3(C)C(=O)C=C(CC)[C@@H](C3=O)[C@@H]12 | 27.2 µM | 3.8 µM | 9.65 µM | 5.55 µM | 12.2 µM | 9.94 µM | 11.6 µM | 4.26 µM
COc1cccc2c1C(=O)c1c(O)c3c(c(O)c1C2=O)C[C@@](O)(C(=O)CO)C[C@@H]3O[C@H]1C[C@H](N)[C@H](O)[C@H](C)O1 [DOXORUBICIN] | 0.57 µM | – | – | – | – | 0.18 µM | – | –
C=C(C)CC[C@H](OC(C)=O)[C@@]1(C)C[C@@H]2OC(=O)C(=C)[C@@H]2CC1=O | 24.8 µM | 7.31 µM | 11 µM | 4.88 µM | 14.4 µM | 8.53 µM | 12 µM | 4.63 µM
C=C1C(=O)O[C@H]2C[C@]3(C)C(=O)C=C(CC)OC3=C[C@@H]12 | 19.6 µM | 5.06 µM | 9.58 µM | 3.55 µM | 10.3 µM | 9.37 µM | 7.86 µM | 3.44 µM
C=C1C(=O)O[C@H]2C[C@@H](C)C(=O)C[C@@H]12 | 42.6 µM | 12.6 µM | 14.9 µM | 8.58 µM | 30.6 µM | 18.3 µM | 15.7 µM | 5.82 µM
C=C1C(=O)O[C@H]2C[C@](C)(/C=C/C(=O)CC)C(=O)C[C@@H]12 | 25.4 µM | 1.02 µM | 10.5 µM | 6.16 µM | 9.94 µM | 5.8 µM | 9.03 µM | 4.72 µM
